Experimental data reported in patent US11306100B2, “Spirooxindole compounds as GSK3B inhibitors and process for preparation thereof” (COUNCIL OF SCIENTIFIC & INDUSTRIAL RESEARCH, priority 2017, dated 2022).

How the values were obtained:
recombinant GSK3β = recombinant GSK3β (Homo sapiens, UniProt P49841); assay: ADP-Glo kinase assay of GSK3β activity; type: biochemical; conditions: for IC50: GSK3β kinase activity, 2 μM ATP
Procedure: Activity of recombinant GSK3β is measured using ADP-Glo Kinase assay according to supplier's standard protocol with minor modifications in 384 well format. Briefly, kinase reaction mixture was prepared by adding […] of recombinant enzyme, 2 μM ATP, 1 μg of enzyme substrate along with test compound or DMSO to a final volume of 5 μl. The kinase reaction was performed by incubating the mixture at room temperature for 17 mins. To correct reaction back ground a substrate blank reaction was also performed. ADP glow reagent (equal volume to reaction mixture) was added to the reaction mixture to deplete any unused ATP added to the kinase reaction and incubated at further 40 min at 27° C. Then 10 μl of kinase detection reagent was added followed by incubation for 30 min at 27° C. to convert ADP to ATP and introduce luciferase to measure kinase activity. The luminescence was measured using luminometer (Perkin Elmer) which is directly proportional to ADP generated in kinase reaction. To determine the amount of ADP produced in kinase reaction and calculate specific activity of the enzyme, a conversion curve is prepared by serial dilution of ADP and ATP mixture. Specific activity of the GSK3β was calculated using the following equation. (ADP(kinase reaction)−ADP(substrate blank)) in mmol)/(Reaction time in min)×(GSK3β in mg).

PANC-1 cells [1] = assay: Cell cycle analysis / cell death by PI uptake, flow cytometry; type: cell-based; conditions: for cell death by FACS: 25 uM compound; for cell death (% of cells in subG1): in combination with TRAIL versus compounds alone or TRAIL alone
Procedure: To determine effect of GSK3β inhibitors on cell death and/or cell cycle progression, PANC-1 cells were treated with identified molecules with or without TRAIL. Upon treatment with compounds in combination with TRAIL, PANC-1 cell death was determined with propidium iodide (PI) uptake measured by Flow cytometry. Treated cells were harvested in cold PBS and fixed in 70% ethanol at −20° C. for overnight. The fixed cells were by centrifugation and re-suspended in PI ([…]) solution containing RNase (0.1 mg/mL) and Triton X-100 (0.05%). The cells were incubated in dark for 1 h at room temperature. The excess PI was washed out using PBS, the resultant PI uptake was analyzed by FACS Caliber System (BD Bio-science, Erembodegem, Belgium) in an FL-2 fluorescence detector (10000 events were recorded for each condition). Flow cytometry data was analyzed using FCS express 4 software (De Novo Software, Los Angeles, Calif., USA).

PANC-1 cells [2] = assay: Colony formation (soft agar, clonogenic) assay; type: cell-based
Procedure: To determine the efficiency of GSK3β inhibitors in combination with the TRIAL on anchorage independent growth of PANC-1 cells soft agar assay were performed. The base agar (0.5%) was prepared by mixing equal amounts of 1% agar with 2× media (20% FBS and 2× antibiotics) filled in 6-well plate. Simultaneously, PANC-1 cells (14000/well) mixed with 2× media containing different concentrations of identified compounds alone or in combination with TRAIL mixed with 0.7% of sterile agar to achieve final concentration of […] top agar. The cell suspension was spread on solidified base agar. Then the plates were incubated in CO2 incubator for 14 days and the cells were fed with fresh media containing respective concentration and combination of TRIAL every 3 days. Upon termination (after 14 days of incubation) plates were stained with 0.005% of crystal violet for 1 h and excess stain was removed by washing with MQ. The number of blue colonies were counted using olympus Xi71 microscope.

[3] = test system: cellular GSK3β signalling in PANC-1 cells; assay: Western blot of GSK3β signalling and NFkB target proteins in PANC-1 cells; type: cell-based; conditions: for phosphorylation of GSK3β: PANC-1 cells treated with compound; for β-catenin level: PANC-1 cells versus control (DMSO); for BCL2 and XIAP levels: compound with TRAIL versus TRAIL alone or compound alone; for bcl2 and xiap expression: dose dependence of compound; for Cyclin D1 levels / phosphorylation of GSK3β (9th serine residue): in combination with TRAIL; for p-GS (phosphorylated glycogen synthase) level: increasing concentrations of compound, total GS unaffected
Procedure: The compounds inhibiting GSK3β activity in-vitro added to PANC-1 cells to determine their potential against intracellular GSK3β signalling pathways in cancer cells. Briefly, PANC-1 cells were plated in 60 mm plates (100,000 cells/4 mL) and cultured in the standard DMEM medium containing 10% serum. After culturing for 18 hrs, different concentrations of test compounds or standard controls prepared in DMSO were added to culture media to achieve final concentration 0 to 100 μM of compound to cells. Cells were further continued to grow for 48 h with constant supply of 5% CO2 in humid incubator. The time course (0 to 48 h) experiment was carried out simultaneously with fixed concentration of compound showing 50% growth inhibition. At the end of the experiments, all cells were scraped directly in cold PBS and washed for 3 times before lysis directly in 2D lysis buffer (8M urea, 2M thiourea, 4% CHAPS, 4 mM tris base and 65 mM DTT) for isolation of proteins to perform western blots. The protein concentration was determined by modified Bradford assay.
To perform western blot, protein extracts were separated on 12% SDS-PAGE and electrophoretically (1 mA/cm^2 membrane for 1 hr) transferred onto the nitrocellulose membrane by semi-dry method. After protein transfer, membrane was stained with Ponceau S solution (0.2% Ponceau S in 3% Trichloroacetic acid) for 2 min to see efficiency of electrophoretic transfer. The membrane was destained in ddH2O to visualize the protein bands and further destained with TBST (20 mM Tris, 138 mM NaCl, pH 7.6 and 0.1% Tween 20) for blotting. To avoid non-specific detection of target proteins, blotted membranes were blocked with BSA (3% BSA in TBST solution). All antibodies against specific protein targets of interest were purchased from Cell Signaling Technology, USA if not mentioned specifically. Then the blots were incubated with antibodies prepared in blocking buffer (1:1000 Antibody to blocking buffer dilution) for 18 h with constant shaking at 4° C. Three washing steps in PBS each for 5 mins removed the excess and non-specific antibodies. For visualization, blots were incubated with secondary antibody conjugated to either horseradish peroxidase or alkaline phosphatase [anti-(mouse IgG) or anti-(rabbit IgG), diluted 1:5000 in TBST] for 1 h at room temperature. After three washes in PBS, the reaction was developed either by addition of LumiGLO substrate (Cell Signaling Technology) followed by capturing on X-ray film or addition of chromogenic NBT (nitro-blue tetrazolium chloride) and BCIP (5-bromo-4-chloro-3′-indolyphosphate p-toluidine salt) substrate for alkaline phosphatase developing purple colored bands. The blots were scanned for densitometry performed using Image-J program.

[4] = compound in the presence of TRAIL 10 ηg/mL

Chain of recombinant GSK3β (P49841 whole entry): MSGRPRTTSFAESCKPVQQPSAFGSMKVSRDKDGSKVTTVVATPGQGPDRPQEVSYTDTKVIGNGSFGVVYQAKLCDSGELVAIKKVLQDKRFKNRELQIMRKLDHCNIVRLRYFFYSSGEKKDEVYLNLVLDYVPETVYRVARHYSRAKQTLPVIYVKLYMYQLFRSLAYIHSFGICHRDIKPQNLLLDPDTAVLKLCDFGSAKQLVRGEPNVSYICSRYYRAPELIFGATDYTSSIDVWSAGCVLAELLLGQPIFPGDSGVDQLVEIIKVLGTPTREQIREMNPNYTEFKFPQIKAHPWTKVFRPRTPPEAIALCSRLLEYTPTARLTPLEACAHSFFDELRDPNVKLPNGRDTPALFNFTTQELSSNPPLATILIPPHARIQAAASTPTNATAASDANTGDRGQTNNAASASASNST

Structure (SMILES): COc1ccccc1N1CCN(CC2CC3(CO2)C(=O)Nc2ccccc23)CC1 (centres unmarked) [AB-U, 5-((4-(2-Methoxyphenyl)piperazin-1-yl)methyl)-4,5-dihydro-2H-spiro[furan-3,3′-indolin]-2′-one]
- inhibition of GSK3β in in-vitro kinase assays (recombinant GSK3β): potent inhibition
- IC50 (recombinant GSK3β): 4.92 ± 0.13 µM
- cell death by FACS (PANC-1 cells [1]): cell death even at 25 uM
- cell death (% of cells in subG1) (PANC-1 cells [1]): more cell death
- inhibition of colony formation (PANC-1 cells [2]; compound alone, 14 days): dose-dependent inhibition
- inhibition of colony formation (PANC-1 cells [2]; [4]): more effective inhibition of colony formation
- phosphorylation of GSK3β [3]: significantly decreased
- β-catenin level [3]: accumulation of β-catenin
- BCL2 and XIAP levels [3]: synergistic effect
- bcl2 and xiap expression [3]: decreased in a dose dependent manner
- Cyclin D1 levels [3]: significantly reduced
- phosphorylation of GSK3β (9th serine residue) [3]: synergistic effect
- p-GS (phosphorylated glycogen synthase) level [3]: significantly decreased

Structure (SMILES): CCOC(=O)c1ccc(-c2ccccc2OCc2cn(CC3CC4(CO3)C(=O)Nc3ccccc34)nn2)nc1C (centres unmarked) [AB-O, Ethyl 2-methyl-6-(2-((1-((2′-oxo-4,5-dihydro-2H-spiro[furan-3,3′-indoline]-5-yl)methyl)-1H-1,2,3-triazol-4-yl)methoxy)phenyl)nicotinate]
- inhibition of GSK3β in in-vitro kinase assays (recombinant GSK3β): potent inhibition
- IC50 (recombinant GSK3β): 3.88 ± 0.01 µM
- cell death by FACS (PANC-1 cells [1]): cell death even at 25 uM
- cell death (% of cells in subG1) (PANC-1 cells [1]): more cell death
- inhibition of colony formation (PANC-1 cells [2]; compound alone, 14 days): dose-dependent inhibition
- inhibition of colony formation (PANC-1 cells [2]; [4]): more effective inhibition of colony formation
- phosphorylation of GSK3β [3]: significantly decreased
- β-catenin level [3]: accumulation of β-catenin
- BCL2 and XIAP levels [3]: synergistic effect
- bcl2 and xiap expression [3]: decreased in a dose dependent manner
- Cyclin D1 levels [3]: significantly reduced
- phosphorylation of GSK3β (9th serine residue) [3]: synergistic effect
- p-GS (phosphorylated glycogen synthase) level [3]: significantly decreased
